Data on 5 compounds can be found in ChEMBL document CHEMBL5576103, “Targeting prolidase. A survey of the literature data to depict a structure-activity relationship frame and to address future studies for drug development” (Bioorg Med Chem, 2024).

The target in assay [1] is T1, Xaa-Pro dipeptidase (Homo sapiens, UniProt P12955).
T1 sequence (P12955 whole entry): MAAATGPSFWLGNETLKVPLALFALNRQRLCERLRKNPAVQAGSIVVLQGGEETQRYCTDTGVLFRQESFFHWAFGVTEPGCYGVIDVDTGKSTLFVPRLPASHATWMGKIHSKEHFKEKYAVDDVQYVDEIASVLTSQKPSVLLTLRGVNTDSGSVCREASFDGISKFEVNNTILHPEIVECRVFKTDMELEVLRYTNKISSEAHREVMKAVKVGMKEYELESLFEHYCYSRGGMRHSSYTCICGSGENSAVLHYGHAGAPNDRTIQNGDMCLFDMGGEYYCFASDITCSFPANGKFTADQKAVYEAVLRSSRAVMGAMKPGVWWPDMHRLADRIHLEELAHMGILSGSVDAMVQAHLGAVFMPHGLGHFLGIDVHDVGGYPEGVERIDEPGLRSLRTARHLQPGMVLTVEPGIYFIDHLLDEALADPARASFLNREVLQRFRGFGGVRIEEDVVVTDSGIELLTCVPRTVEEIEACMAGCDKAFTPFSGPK
The assay can be described thus: Competitive inhibition of prolidase (unknown origin) in erythrocytes assessed as inhibition constant.

The next assay has as its system MDA-MB-231. The assay can be described thus: Cytotoxicity against human MDA-MB-231 cells assessed as reduction in cell viability measured for 72 hrs by MTT assay. Particulars: MDA-MB-231, 72 h. A general note: Formazan colour is commonly taken as a measure of viable cells.
For a further assay, the system named is MCF7. Briefly: Cytotoxicity against human MCF7 cells assessed as reduction in cell viability measured for 72 hrs by MTT assay. Particulars: MCF7, 72 h.
The subject of the next assay is SK-MEL-5. Briefly: cells. Particulars: Homo sapiens, SK-MEL-5, 48 h.
Assay [2] has as its target T1, Xaa-Pro dipeptidase. Briefly: Inhibition of prolidase (unknown origin).

Description for SK-MEL-5: Growth inhibition of human SK-MEL-5 cells after 48 hrs by sulforhodamine B assay

On to `NC(=O)Nc1ccc(O)cc1`, for which the Ki on Xaa-Pro dipeptidase [1] was found to be 9.73 µM.

In the case of `O=NN(CCCl)C(=O)N1CCC[C@H]1C(=O)O`, the IC50 with MDA-MB-231 was 88 µM; in the assay on MCF7 it was 102 µM.

In the assay with SK-MEL-5, `N[C@@H](Cc1ccc(N(CCCl)CCCl)cc1)C(=O)O` had a GI50 of 74.8 µM.

On Xaa-Pro dipeptidase [2], `COc1cccc2c1C(=O)c1c(O)c3c(c(O)c1C2=O)C[C@@](O)(C(C)=O)C[C@@H]3O[C@H]1C[C@H](N)[C@H](O)[C@H](C)O1` [DAUNORUBICIN] displayed an IC50 of 0.3 µM.

`COc1cccc2c1C(=O)c1c(O)c3c(c(O)c1C2=O)C[C@@](O)(C(=O)CO)C[C@@H]3O[C@H]1C[C@H](N)[C@H](O)[C@H](C)O1` [DOXORUBICIN] gave a half-inhibitory concentration (IC50) against Xaa-Pro dipeptidase [2] of 10 µM.

One may read the Ki as a dissociation constant, usually derived from enzyme kinetics or from competition with a known ligand. The term IC50 denotes the midpoint of a concentration-inhibition curve. Usually GI50 stands for the concentration that inhibits growth by half. Read a high GI50 as lower sensitivity of the cells.
